Test results reported in patent EP1200395B1, “UREA DERIVATIVES AS INHIBITORS OF CCR-3 RECEPTOR” (KIRIN BEER KABUSHIKI KAISHA, priority 1999, dated 2001).

Target: T1, CCR-3 (Homo sapiens, UniProt P51677)
T1 sequence (P51677 1-355): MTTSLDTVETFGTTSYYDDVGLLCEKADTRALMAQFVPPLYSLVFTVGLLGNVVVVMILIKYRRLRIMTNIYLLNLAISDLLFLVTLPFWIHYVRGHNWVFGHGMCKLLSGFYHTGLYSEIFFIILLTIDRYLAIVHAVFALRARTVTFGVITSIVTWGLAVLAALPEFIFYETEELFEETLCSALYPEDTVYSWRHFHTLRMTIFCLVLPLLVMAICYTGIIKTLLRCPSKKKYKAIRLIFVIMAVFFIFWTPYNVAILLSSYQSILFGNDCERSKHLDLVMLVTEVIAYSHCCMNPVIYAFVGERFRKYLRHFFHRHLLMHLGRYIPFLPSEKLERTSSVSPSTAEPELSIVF
Test: Eotaxin-induced chemotaxis of CCR-3 transfectant cells (CCR3/U937)
Format: cell-based
Set-up: expressed in transfected cells; host or cells: U937
Conditions: 10 µM test compound; eotaxin 1 x 10^-9 M; CCR3/U937 cells (Table 3a)

Chemotaxis Assay 10 µM (inhibition %)	Compound
19%	COC(=O)CCCN(CCCNC(=O)Nc1ccccc1-c1ccccc1)C1CCCc2ccccc21 (centres unmarked) [Compound 54]
91%	O=C(O)CCCN(CCCNC(=O)Nc1ccc(C(=O)O)cc1)C1CCCc2ccccc21 (centres unmarked) [Compound 235]
56%	COc1cc(CN(CCCNC(=O)Nc2ccccc2)CCc2ccc(Cl)cc2)cc(OC)c1 [Compound 292]
100%	CC(c1ccc2ccccc2c1)N(CCCNC(=O)Nc1ccc(Br)cc1)CCCC(=O)O (centres unmarked) [Compound 270]
. 97%	COC(=O)CCCN(CCCNC(=O)Nc1ccc(Br)cc1)CCc1ccc(Cl)cc1 [Compound 31, Methyl 4-[[3-(4-bromophenylureido)pcopyl][2-(4-chlorophenyl)-ethyl]amino]butylate]
76%	O=C(NCCCN(CCc1ccc(Cl)cc1)Cc1ccccc1)Nc1ccccc1 [Compound 28]
100%	COC(=O)CCCN(CCCNC(=O)Nc1ccc(Cl)cc1)C1CCCc2ccccc21 (centres unmarked) [Compound 185]
100%	O=C(O)CCCN(CCCNC(=O)Nc1cccc(Br)c1)C1CCCc2ccccc21 (centres unmarked) [Compound 199]
81%	CC(=O)OCCN(CCCNC(=O)Nc1ccccc1)CCc1ccc(Cl)cc1 [Compound 244]
100%	CS(=O)(=O)NC(=O)CCCN(CCCNC(=O)Nc1ccc(Br)cc1)C1CCCc2ccccc21 (centres unmarked) [Compound 210]
93%	COC(=O)CCCN(CCCNC(=O)Nc1ccc(Cl)c(C(F)(F)F)c1)C1CCCc2ccccc21 (centres unmarked) [Compound 53]
100%	O=C(O)CCCN(CCCNC(=O)Nc1ccc(Br)cc1)C1Cc2ccccc2C1 [Compound 175]
100%	COC(=O)CCCN(CCCNC(=O)Nc1ccc(Br)cc1)C1CCc2ccccc21 (centres unmarked) [Compound 172, Methyl 4-[[3-(4-bromophenylureido)propyl](1-indanyl)amino]burylate]
88%	COC(=O)CCCN(CCCNC(=O)Nc1ccc(Br)cc1)Cc1ccc2c(c1)OCO2 [Compound 40]
100%	COC(=O)CCCN(CCCNC(=O)Nc1cccc(C)c1)C1CCCc2ccccc21 (centres unmarked) [Compound 52]
100%	COC(=O)CCCN(CCCNC(=O)Nc1ccc(Br)cc1)Cc1ccccc1 [Compound 37]
50%	O=C(O)CCCN(CCCNC(=O)Nc1ccc(Br)cc1)CCc1c[nH]c2ccccc12 [Compound 74]

Same assay, conditions: 10 µM test compound; eotaxin 1 x 10^-9 M; CCR3/U937 cells (Table 3c)

Chemotaxis Assay 10 µM (inhibition %) [%]	Compound
100	CC[N+](CCCNC(=O)Nc1ccccc1)(CCc1ccc(Cl)cc1)Cc1ccc(F)cc1F.[I-] (centres unmarked) [compound 339]
100	CC[N+](CCCO)(CCCNC(=O)Nc1ccccc1)CCc1ccc(Cl)cc1.[I-] (centres unmarked) [Compound 299]
100	CC[N+](CCCNC(=O)Nc1ccccc1)(CCc1ccc(Cl)cc1)CC1CCCCC1.[I-] (centres unmarked) [compound 319]
100	CC[N+](CC)(CCCCCNC(=O)Nc1ccccc1)CCc1ccc(Cl)cc1.[I-] [Compound 323, [5-(Phenylureido)pentyl][2-(4-chlorophenyl)ethyl]diethylammanium iodide]
100	CCOC(=O)CCCCC[N+](CC)(CCCNC(=O)Nc1ccccc1)CCc1ccc(Cl)cc1.[I-] (centres unmarked) [compound 321]
100	CC[N+](CCCNC(=O)Nc1ccccc1)(CCc1ccc(Cl)cc1)Cc1ccc(C#N)cc1.[I-] (centres unmarked) [compound 345]
100	C=CC[N+](CC)(CCCNC(=O)Nc1ccccc1)CCc1ccc(Cl)cc1.[I-] (centres unmarked) [Compound 301]

Same assay, conditions: U-937; 10 µM test compound; eotaxin 1 x 10^-9 M; CCR3/U937 cells (Table 3a)

inhibition at 10 µM [%]	Compound
87	O=C(NCCCN(CCCc1nnnn1C(c1ccccc1)(c1ccccc1)c1ccccc1)C1CCCc2ccccc21)Nc1ccc(Br)cc1 (centres unmarked) [Compound 217, 3-[[3-(4-bromophenylureido)propyl](1,2,3,4-tetrahydro-1-naphthyl)amino]-1-[1-(triphenylmethyl)tetrazol-5-yl]propane]
100	O=C(CCCN(CCCNC(=O)Nc1ccc(Br)cc1)C1CCCc2ccccc21)NS(=O)(=O)c1ccccc1 (centres unmarked) [Compound 196, 3-[[3-(4-Bromophenylureido)propyl](1,2,3,4-tetrahydro-1-naphthyl)amino]-1-[(phenylsulfonyl)carbamoyl]propane]
100	O=C(O)CCCN(CCCNC(=O)Nc1ccc(Cl)cc1)C1CCCc2ccccc21 (centres unmarked) [Compound 171, 4-[[3-(4-Chlorophenylureido)propyl](1,2,3,4-tetrahydro-1-naphthyl)amino]butanoic acid]
100	COc1ccc([C@@H](C)N(CCCNC(=O)Nc2ccc(Br)cc2)CCCC(=O)O)cc1 [Compound 227, 4-[[3-(4-Bromophenylureido)propyl][(1R)-1-(4-methoxyphenyl)ethyl]amino]butanoic acid]
100	CCOC(=O)c1ccc(NC(=O)NCCCN(CCCC(=O)O)C2CCCc3ccccc32)cc1 (centres unmarked) [Compound 228, 4-[[3-[4-(Ethoxycarbonyl)phenylureido]propyl](1,2,3,4-tetrahydro-1-naphthyl)amino]butanoic acid]
100	C[C@H](c1ccc(Br)cc1)N(CCCNC(=O)Nc1ccc(Br)cc1)CCCC(=O)O [Compound 258, 4-[[3-(4-Bromophenylureido)propyl] [(1R)-1-(4-bromophenyl)ethyl]amino]butanoic acid]
99	O=C(NCCCN(CCCc1nnn[nH]1)C1CCCc2ccccc21)Nc1ccc(Br)cc1 (centres unmarked) [Compound 218, 3-[[3-(4-Bromophenylureido)propyl](1,2,3,4-tetrahydro-1-naphthyl)amino]-1-(1H-tetrazol-5-yl)propane]

Same assay, conditions: U-937; 10 µM test compound; eotaxin 1 x 10^-9 M; CCR3/U937 cells (Table 3c)

inhibition at 10 µM [%]	Compound
100	CC[N+](CCCNC(=O)Nc1ccccc1)(CCc1ccc(Cl)cc1)Cc1ccccc1 (centres unmarked) [Compound 302, [3-(Phenylureido)propyl][2-(4-chlorophenyl)ethyl](benzyl)ethylammonium iodide]

Same assay, conditions: test compound 0.1 µg/ml; eotaxin 1 x 10^-9 M; CCR3/U937 transfectants; 37 °C, 1 hour

Chemotaxis Assay 0.1 µg/ml (inhibition %) [%]	Compound
49	CC[N+](CCCNC(=O)Nc1ccc(Cl)c(Cl)c1)(CCOCCOC)CCc1ccccc1.[I-] (centres unmarked) [compound 359]
92	C=C(C)C[N+](CC)(CCCNC(=O)Nc1ccccc1)CCc1cccc(Cl)c1.[I-] (centres unmarked) [compound 423]
43	CC[N+](CCCNC(=O)Nc1ccc(C(F)(F)F)cc1)(CCOCCOC)CCc1ccc(Cl)cc1.[I-] (centres unmarked) [compound 386]
95	CC[N+](CCCNC(=O)Nc1ccccc1)(CCOCCOC)CCc1cccc(Cl)c1.[I-] (centres unmarked) [compound 413]
76	CC[N+](CCCNC(=O)Nc1ccccc1)(CCc1ccc(Cl)cc1Cl)CC1CCC1.[I-] (centres unmarked) [compound 419]
66	CC[N+](CCCNC(=O)Nc1ccccc1)(CCc1cccc(F)c1)CC1CCC1.[I-] (centres unmarked) [compound 421]
68	CC[N+](CCF)(CCCNC(=O)Nc1ccc(Br)cc1)CCc1ccc(Cl)cc1.[I-] (centres unmarked) [compound 381]
35	CCC(CC)C[N+](CC)(CCCNC(=O)Nc1ccc(OC)cc1)CCc1cccc(F)c1.[I-] (centres unmarked) [compound 450]
45	CC[N+](CCCNC(=O)Nc1ccc(C#N)cc1)(CCOCCOC)CCc1cccc(OC)c1.[I-] (centres unmarked) [compound 392]
